# Data from ChEMBL document CHEMBL1201862, “PubChem BioAssay data set” (2004).
# Active and inactive are the calls of the source.
# Columns and labels:
# Cytochrome P450 3A4 = Cytochrome P450 3A4 (Homo sapiens, UniProt P08684);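 note: CYP3A4 tested as one member of a cytochrome P450 panel screen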
# Estrogen receptor beta = Estrogen receptor beta (Homo sapiens, UniProt Q92731);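 note: recombinant ER-beta bound to coactivator SRC1 peptide in presence of estradiol agonist; inhibitors block coactivator peptide binding and lower the FRET signal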
# Estrogen receptor beta, sequence (Q92731 whole entry): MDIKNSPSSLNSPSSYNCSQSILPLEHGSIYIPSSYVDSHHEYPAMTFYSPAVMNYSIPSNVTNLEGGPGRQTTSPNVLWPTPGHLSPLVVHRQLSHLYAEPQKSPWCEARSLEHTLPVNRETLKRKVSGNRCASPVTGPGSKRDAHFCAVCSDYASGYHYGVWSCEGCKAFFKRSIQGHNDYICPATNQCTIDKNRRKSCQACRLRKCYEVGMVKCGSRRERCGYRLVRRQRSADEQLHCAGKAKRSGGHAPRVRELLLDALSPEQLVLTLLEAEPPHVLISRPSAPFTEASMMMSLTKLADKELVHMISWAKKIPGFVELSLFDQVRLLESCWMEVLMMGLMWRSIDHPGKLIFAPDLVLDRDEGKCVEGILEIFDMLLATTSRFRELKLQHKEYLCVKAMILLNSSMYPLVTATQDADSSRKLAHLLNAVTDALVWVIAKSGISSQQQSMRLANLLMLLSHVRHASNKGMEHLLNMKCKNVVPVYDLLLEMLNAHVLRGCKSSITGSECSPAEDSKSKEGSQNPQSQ
# [1] = Trypanosoma cruzi growth suppression in host cells – NIH3T3 host cells, beta-gal luminescence, confirmation (AID 2044); assay type: functional, cell-based;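 note: intracellular parasites grown in NIH/3T3 mouse fibroblasts as host cells; luminescent beta-galactosidase reporter signal from transgenic T. cruzi replicating inside host cells; inhibitors lower the luminescence signal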
# [2] = NIH3T3 cell viability loss – ATP luminescence, mouse fibroblasts, counter-screen, dose response (AID 2010); assay type: functional, cell-based;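 note: cells exposed to compound for about 90 hours before reading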
# [3] = biological target: DNA dC->dU-editing enzyme APOBEC-3G (Homo sapiens, UniProt Q9HC16); assay: Dose Response confirmation of small molecule APOBEC3G DNA Deaminase Inhibitors via a fluorescence-based single-stranded DNA deaminase assay. [Related pubchem assays (depositor defined):AID493012, AID493028]; assay type: functional
# Fatty acid synthase [4] = biological target: T1, Fatty acid synthase (Homo sapiens, UniProt P49327); assay: inhibition of human FAS-TE enzyme activity – biochemical, endpoint fluorescence intensity, uHTS hits, dose response (AID 624327); assay type: functional;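 note: fluorescence from hydrolysis of an O-methyl fluorescein acyl ester substrate by the enzyme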
# T1 sequence (P49327 whole entry): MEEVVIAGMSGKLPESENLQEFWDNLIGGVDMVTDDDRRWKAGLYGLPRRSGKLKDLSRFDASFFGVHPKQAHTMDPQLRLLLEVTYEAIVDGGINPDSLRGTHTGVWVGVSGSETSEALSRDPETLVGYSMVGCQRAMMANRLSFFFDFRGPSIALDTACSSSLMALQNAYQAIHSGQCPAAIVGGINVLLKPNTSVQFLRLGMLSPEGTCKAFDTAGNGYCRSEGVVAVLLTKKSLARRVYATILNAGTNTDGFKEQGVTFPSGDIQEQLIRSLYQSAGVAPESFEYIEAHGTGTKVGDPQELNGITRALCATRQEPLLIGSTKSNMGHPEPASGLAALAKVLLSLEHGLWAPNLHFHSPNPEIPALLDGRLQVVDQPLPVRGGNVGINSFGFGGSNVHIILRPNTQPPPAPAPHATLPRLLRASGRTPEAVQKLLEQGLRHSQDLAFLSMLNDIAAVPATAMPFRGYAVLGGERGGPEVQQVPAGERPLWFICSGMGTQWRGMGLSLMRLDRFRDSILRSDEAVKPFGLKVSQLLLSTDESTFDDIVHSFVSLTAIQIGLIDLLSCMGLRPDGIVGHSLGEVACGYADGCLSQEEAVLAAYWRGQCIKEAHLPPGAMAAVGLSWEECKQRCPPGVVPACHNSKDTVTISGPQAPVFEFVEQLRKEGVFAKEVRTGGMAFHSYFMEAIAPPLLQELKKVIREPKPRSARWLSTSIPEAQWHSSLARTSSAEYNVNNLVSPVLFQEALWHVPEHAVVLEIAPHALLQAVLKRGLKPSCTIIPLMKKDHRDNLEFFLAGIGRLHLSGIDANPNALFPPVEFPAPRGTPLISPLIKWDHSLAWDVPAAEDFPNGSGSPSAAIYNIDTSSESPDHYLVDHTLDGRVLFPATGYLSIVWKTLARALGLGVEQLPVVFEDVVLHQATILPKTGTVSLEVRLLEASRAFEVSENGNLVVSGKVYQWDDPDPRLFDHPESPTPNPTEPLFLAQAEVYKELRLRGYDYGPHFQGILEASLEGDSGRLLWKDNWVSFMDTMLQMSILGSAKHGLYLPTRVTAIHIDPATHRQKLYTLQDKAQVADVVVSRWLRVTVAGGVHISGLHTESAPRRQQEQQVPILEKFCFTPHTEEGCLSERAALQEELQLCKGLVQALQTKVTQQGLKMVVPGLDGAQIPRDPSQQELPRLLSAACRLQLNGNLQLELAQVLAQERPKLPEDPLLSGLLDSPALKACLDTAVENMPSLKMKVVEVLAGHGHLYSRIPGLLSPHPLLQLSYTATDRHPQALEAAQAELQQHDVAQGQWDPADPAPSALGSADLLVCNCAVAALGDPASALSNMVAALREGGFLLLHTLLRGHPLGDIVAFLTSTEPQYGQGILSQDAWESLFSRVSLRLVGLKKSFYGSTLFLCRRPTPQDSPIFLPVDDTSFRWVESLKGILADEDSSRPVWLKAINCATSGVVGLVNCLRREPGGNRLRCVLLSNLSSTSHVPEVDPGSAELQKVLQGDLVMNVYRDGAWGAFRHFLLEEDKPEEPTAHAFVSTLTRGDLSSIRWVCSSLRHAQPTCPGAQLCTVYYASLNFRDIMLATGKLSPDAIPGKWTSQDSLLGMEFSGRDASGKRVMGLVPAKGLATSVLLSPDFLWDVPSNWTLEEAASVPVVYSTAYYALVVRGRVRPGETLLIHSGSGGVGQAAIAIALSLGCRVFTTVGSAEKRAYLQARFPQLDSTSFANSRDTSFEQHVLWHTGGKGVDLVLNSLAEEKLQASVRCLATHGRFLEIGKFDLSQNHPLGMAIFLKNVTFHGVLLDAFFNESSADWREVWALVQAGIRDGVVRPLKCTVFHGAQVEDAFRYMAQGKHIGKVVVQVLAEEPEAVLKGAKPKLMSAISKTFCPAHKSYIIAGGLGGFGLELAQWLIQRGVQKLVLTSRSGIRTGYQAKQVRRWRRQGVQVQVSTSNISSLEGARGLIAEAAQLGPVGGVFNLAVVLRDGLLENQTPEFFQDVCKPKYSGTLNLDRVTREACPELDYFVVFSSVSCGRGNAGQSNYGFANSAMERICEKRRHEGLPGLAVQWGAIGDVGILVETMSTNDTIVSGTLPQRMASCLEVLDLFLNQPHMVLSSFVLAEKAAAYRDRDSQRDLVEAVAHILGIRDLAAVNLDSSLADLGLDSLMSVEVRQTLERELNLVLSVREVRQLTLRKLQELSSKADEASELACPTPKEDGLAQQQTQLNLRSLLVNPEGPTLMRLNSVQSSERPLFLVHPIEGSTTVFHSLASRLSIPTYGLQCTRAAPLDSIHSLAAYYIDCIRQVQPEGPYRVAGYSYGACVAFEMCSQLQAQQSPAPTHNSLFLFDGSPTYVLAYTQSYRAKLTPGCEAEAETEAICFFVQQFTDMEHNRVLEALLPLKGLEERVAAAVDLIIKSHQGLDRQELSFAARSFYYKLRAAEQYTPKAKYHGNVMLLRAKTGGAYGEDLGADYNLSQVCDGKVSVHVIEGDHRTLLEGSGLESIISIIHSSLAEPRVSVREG
# Fatty acid synthase [5] = biological target: T1, Fatty acid synthase; assay: inhibition of human FAS-TE enzyme activity – biochemical, kinetic fluorescence intensity, dose response (AID 624326); assay type: functional;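 note: rate of fluorescence rise from hydrolysis of a fluorogenic O-methyl fluorescein ester substrate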
# [6] = biological target: Eukaryotic translation initiation factor 4E (Mus musculus, UniProt P63073); assay: blockers of eIF4G binding by eIF4E – biochemical, TR-FRET, dose response (AID 855); assay type: functional;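 note: potency for disrupting eIF4E binding to eIF4GI seen as loss of FRET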
# cells = assay type: functional
# H9c2 = assay: cells; assay type: functional, cell-based; conditions: Rattus norvegicus, H9c2, Myocardium;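 note: confirmatory concentration-response retest of ultra-high-throughput screening hits for modulation of myocardial damage; cell death induced by hydrogen peroxide oxidative stress; compound pretreatment for 60 min then peroxide exposure for 2 h; potency is for protecting the cells against peroxide damage rather than for killing them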
# [7] = viability of PTEN-deleted HCT116 cells – cell-based, HCT116 PTEN knockout, dose response (AID 1047); assay type: functional;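 note: HCT116 colon tumor cells with PTEN knocked out; cells exposed to compound for 60 hours before readout; potency for loss of cell viability measured by luminescence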
# [8] = viability of HCT116 lacking mutant beta-catenin – cell-based, human colon tumor, dose response (AID 1045); assay type: functional;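 note: HCT116 colon tumor cells with beta catenin knocked out; cells exposed to compound for 60 hours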
# [9] = biological target: T2, RNA-binding protein pos-1 (Caenorhabditis elegans, UniProt G5EF15); assay: disruptors of C. elegans POS-1 RNA interaction – biochemical, fluorescence polarization, dose response (AID 1964);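 note: purified POS-1 fused to maltose binding protein made in E. coli; potency of compounds blocking POS-1 binding to fluorescent RNA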
# T2 sequence (G5EF15 whole entry): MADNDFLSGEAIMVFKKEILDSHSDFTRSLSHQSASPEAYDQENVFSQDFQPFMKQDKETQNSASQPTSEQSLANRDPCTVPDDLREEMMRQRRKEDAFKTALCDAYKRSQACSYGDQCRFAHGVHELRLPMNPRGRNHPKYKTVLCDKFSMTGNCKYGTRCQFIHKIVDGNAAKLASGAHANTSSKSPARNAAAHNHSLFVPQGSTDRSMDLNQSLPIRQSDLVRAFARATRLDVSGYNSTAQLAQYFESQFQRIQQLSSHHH
# [10] = biological target: T3, Zinc finger protein mex-5 (Caenorhabditis elegans, UniProt Q9XUB2); assay: potency of MEX-5 RNA-binding blockers – biochemical, C. elegans, fluorescence polarization, dose response (AID 1960)
# T3 sequence (Q9XUB2 whole entry): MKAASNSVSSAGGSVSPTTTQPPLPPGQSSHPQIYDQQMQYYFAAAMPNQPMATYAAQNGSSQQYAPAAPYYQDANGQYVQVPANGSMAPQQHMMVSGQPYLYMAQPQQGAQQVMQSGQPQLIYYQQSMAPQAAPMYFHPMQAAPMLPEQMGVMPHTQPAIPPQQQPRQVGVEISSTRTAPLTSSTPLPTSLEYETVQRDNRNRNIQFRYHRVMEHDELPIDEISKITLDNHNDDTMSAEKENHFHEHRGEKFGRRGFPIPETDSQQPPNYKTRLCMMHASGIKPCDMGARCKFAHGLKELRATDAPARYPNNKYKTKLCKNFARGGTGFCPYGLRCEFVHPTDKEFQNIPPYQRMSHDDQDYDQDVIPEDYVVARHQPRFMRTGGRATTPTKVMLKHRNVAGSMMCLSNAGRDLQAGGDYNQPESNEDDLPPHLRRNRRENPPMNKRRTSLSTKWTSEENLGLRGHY
# [11] = biological target: Luciferin 4-monooxygenase (Photinus pyralis, UniProt P08659); assay: inhibition of purified Photinus pyralis luciferase – biochemical, luminescence, dose response (AID 1891)
# [12] = Luminescence Cell-Based Dose Confirmation HTS to Identify Inhibitors of Platelet Dense Granule Release. [Related pubchem assays: 1663 (Primary HTS), 1678 (Summary of Project)]; assay type: functional
# [13] = biological target: 26S proteasome non-ATPase regulatory subunit 14 (Homo sapiens, UniProt O00487); assay: inhibition of proteasome subunit RPN11 – biochemical, fluorescence polarization, uHTS hits, confirmation (AID 602368); assay type: functional
# 26S proteasome non-ATPase regulatory subunit 14, sequence (O00487 whole entry): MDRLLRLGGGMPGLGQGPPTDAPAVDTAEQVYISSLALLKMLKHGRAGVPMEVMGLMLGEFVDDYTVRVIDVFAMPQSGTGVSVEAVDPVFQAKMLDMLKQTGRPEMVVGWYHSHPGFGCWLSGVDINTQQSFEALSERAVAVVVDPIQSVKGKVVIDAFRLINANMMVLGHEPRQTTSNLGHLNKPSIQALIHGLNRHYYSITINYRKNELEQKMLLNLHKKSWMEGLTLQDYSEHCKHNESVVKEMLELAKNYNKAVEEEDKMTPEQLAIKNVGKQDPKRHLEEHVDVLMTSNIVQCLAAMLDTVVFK
# [14] = biological target: T4, Corticotropin-releasing factor receptor 2/Corticotropin-releasing factor-binding protein (Homo sapiens, UniProt P24387+Q13324); assay: activators of CRF receptor 2 with binding protein – uHTS hits, confirmation (AID 602473); assay type: functional; conditions: read-out: EC50_Mean
# T4 sequence (Q13324 whole entry): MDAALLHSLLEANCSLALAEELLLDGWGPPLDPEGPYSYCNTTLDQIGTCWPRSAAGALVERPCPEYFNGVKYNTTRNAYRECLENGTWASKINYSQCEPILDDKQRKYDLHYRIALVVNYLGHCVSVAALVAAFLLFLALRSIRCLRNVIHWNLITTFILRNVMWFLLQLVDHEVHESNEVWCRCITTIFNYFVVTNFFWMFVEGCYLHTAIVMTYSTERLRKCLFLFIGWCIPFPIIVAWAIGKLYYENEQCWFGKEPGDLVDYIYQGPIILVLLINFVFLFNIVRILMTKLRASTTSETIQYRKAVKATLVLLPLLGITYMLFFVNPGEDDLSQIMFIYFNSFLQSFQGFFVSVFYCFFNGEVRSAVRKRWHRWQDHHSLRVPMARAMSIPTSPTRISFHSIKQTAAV
# T4 sequence (P24387 whole entry): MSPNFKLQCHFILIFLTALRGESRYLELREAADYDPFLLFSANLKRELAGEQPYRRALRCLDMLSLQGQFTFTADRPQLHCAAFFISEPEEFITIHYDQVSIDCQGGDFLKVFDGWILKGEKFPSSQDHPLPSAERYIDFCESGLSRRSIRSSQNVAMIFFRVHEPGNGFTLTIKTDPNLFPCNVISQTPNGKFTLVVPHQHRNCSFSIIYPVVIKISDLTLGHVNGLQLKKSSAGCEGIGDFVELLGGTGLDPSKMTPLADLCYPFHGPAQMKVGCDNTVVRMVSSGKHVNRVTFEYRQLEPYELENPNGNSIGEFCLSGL
# [15] = biological target: 72 kDa type IV collagenase (Homo sapiens, UniProt P08253); assay: Dose Response validation of uHTS RPN11 inhibitor hits using a MMP-2 Fluorescence assay.; assay type: functional
# 72 kDa type IV collagenase, sequence (P08253 whole entry): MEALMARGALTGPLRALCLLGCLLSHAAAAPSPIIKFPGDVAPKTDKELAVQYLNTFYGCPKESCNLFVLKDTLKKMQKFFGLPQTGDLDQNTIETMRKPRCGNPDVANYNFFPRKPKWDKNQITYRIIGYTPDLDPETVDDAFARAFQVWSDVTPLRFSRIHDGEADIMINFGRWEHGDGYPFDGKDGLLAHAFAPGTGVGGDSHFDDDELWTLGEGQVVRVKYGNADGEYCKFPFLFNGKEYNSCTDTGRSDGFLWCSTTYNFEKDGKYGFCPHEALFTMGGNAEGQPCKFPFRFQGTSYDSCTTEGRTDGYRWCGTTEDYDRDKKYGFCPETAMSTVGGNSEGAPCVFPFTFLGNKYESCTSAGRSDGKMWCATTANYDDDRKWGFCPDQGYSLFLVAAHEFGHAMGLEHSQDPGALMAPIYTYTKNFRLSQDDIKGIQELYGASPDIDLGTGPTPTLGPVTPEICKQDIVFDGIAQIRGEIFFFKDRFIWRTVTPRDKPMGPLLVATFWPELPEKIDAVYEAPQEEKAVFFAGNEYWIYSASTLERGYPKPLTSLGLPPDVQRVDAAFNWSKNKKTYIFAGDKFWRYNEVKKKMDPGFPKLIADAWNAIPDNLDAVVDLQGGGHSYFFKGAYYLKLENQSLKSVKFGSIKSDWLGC
# Prothrombin = Prothrombin (Bos taurus, UniProt P00735); assay: thrombin protease inhibitors – biochemical, fluorescence polarization, uHTS hits, dose response (AID 602369); assay type: functional
# Cytochrome P450 2C19 = Cytochrome P450 2C19 (Homo sapiens, UniProt P33261); assay: Cytochrome panel assay with activity outcomes. Panel member name: p450-cyp2c19 Compounds with AC50 equal or less than 10 uM are considered active; assay type: functional; conditions: read-out: AC50
# Cytochrome P450 1A2 = biological target: T5, Cytochrome P450 1A2 (Homo sapiens, UniProt P05177);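 note: PubChem cytochrome P450 panel assay, CYP1A2 panel member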
# T5 sequence (P05177 whole entry): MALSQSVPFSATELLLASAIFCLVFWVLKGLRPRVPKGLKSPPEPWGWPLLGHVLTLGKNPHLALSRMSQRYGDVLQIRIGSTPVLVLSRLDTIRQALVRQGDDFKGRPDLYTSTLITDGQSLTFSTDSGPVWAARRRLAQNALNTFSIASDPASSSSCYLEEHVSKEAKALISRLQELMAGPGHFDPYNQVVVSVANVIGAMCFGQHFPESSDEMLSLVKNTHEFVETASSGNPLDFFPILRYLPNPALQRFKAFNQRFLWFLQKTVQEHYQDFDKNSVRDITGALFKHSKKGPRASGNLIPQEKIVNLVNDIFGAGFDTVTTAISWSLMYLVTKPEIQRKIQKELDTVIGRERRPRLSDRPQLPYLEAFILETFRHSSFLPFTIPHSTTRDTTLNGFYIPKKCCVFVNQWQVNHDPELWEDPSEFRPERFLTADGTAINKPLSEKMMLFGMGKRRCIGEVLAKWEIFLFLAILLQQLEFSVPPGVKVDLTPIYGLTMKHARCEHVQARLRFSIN
# Cytochrome P450 2C9 = Cytochrome P450 2C9 (Homo sapiens, UniProt P11712)
# Paired box protein Pax-8 = Paired box protein Pax-8 (Homo sapiens, UniProt Q06710); assay: PAX8 transcriptional activity inhibition in RMG-I – RMG-I cells, luciferase, cherry-pick, dose response (AID 687027); assay type: functional, cell-based;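 note: luciferase reporter driven by Pax8 target thyroperoxidase promoter measured by SteadyGlo luminescence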
# Paired box protein Pax-8, sequence (Q06710 whole entry): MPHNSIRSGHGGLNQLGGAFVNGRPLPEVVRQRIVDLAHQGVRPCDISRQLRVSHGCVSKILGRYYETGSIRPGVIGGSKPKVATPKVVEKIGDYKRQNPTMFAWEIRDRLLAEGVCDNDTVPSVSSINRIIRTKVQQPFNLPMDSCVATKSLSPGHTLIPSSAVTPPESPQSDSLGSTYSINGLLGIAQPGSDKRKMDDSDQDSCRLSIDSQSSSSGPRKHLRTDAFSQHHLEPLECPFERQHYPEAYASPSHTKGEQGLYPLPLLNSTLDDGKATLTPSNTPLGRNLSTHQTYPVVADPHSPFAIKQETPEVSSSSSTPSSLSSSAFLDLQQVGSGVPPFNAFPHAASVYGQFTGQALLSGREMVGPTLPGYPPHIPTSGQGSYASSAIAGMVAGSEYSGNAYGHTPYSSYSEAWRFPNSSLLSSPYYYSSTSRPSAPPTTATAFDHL
# [16] = OVCAR8 cell viability loss – plate reader, dry powder samples, PAX8 project, dose response (AID 743197); assay type: functional, cell-based; conditions: OVCAR-8
# Cytochrome P450 3A4, sequence (P08684 whole entry): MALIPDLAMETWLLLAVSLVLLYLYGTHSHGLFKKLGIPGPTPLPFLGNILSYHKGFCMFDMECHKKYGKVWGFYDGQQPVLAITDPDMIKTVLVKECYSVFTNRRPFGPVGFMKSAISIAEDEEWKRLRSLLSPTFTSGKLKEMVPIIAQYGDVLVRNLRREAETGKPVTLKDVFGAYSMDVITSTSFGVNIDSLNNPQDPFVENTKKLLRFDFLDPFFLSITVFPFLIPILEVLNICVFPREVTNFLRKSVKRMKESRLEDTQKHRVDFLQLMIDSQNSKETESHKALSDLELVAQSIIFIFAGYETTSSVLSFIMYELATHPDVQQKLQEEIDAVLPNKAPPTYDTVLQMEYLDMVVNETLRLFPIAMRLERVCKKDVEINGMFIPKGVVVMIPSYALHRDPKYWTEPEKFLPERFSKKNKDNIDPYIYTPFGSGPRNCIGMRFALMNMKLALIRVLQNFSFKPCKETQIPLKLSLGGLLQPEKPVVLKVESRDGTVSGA
smiles,measurement,setting,value
O=C(c1ccco1)N1CCC2(CCN(Cc3ccccc3)CC2)CC1,AC50,Cytochrome P450 3A4,inconclusive
CCOc1ccccc1C(=O)N1CCN=C1SC,IC50,Estrogen receptor beta,> 50 µM (not active)
COc1ccccc1NS(=O)(=O)c1cc(NC(=O)C2CCC2)ccc1N1CCCCC1,EC50,[1],2.44 µM (active)
same,EC50,[2],> 30 µM (not active)
same,IC50,[3],46.8 µM (active)
O=C(O)CCCNc1c(C(=O)Nc2ccc(Cl)cc2)cc([N+](=O)[O-])cc1[N+](=O)[O-],IC50,Fatty acid synthase [4],5.31 µM (active)
same,IC50,Fatty acid synthase [5],4.79 µM (active)
C=CCn1c(-c2cc(OC)c(OC)c(OC)c2)n[nH]c1=S,IC50,[6],> 64 µM (inactive)
O=C(COC(=O)c1ccc([N+](=O)[O-])s1)Nc1ccc(Cl)cn1,IC50,cells,8.49 µM (active)
same,IC50,H9c2,22.2 µM (active)
CCOC(=O)CNC(=O)C(Cc1ccccc1)NS(=O)(=O)c1ccc2c(c1)CCC(=O)N2 (stereo not given),IC50,Estrogen receptor beta,> 50 µM (not active)
COCCNC(=O)CCCn1c(=O)c2ccccc2n(Cc2cccc([N+](=O)[O-])c2)c1=O,IC50,Fatty acid synthase [4],11.6 µM (active)
same,IC50,Fatty acid synthase [5],15.8 µM (active)
CCN1C2=C(C(=O)CCC2)C(c2ccc(O)c(Br)c2)C2=C1CCCC2=O,IC50,Estrogen receptor beta,> 50 µM (not active)
O=C(Nc1nc(-c2cc(Cl)sc2Cl)cs1)c1ccc(Br)s1,EC50,[7],17.1 µM (active)
same,EC50,[8],20.2 µM (active)
O=C(NCCCCc1ccccc1)C1CC(c2ccc([N+](=O)[O-])cc2)=NO1 (stereo not given),IC50,Fatty acid synthase [4],13.6 µM (active)
same,IC50,Fatty acid synthase [5],14.1 µM (active)
O=C(c1ccco1)N1CCC2(CCN(Cc3nccs3)CC2)CC1,AC50,Cytochrome P450 3A4,inconclusive
Cc1ccc(-c2nc3cc(C(N)=O)ccc3c(O)c2O)cc1,EC50,[9],7.27 µM (active)
same,EC50,[10],8.44 µM (inconclusive)
same,IC50,H9c2,11.3 µM (active)
COC(=O)C1(C(F)(F)F)N=C2Sc3ccccc3N2C(N2CCOCC2)=N1 (stereo not given),EC50,[11],> 112 µM (not active)
same,EC50,[12],> 112 µM (not active)
same,EC50,[7],23.9 µM (active)
same,EC50,[8],21.7 µM (active)
Nc1ccc(/C=C/C(=O)c2ccco2)cc1,IC50,[13],18 µM (active)
same,EC50,[14],7.4 µM (active)
same,IC50,[15],> 100 µM (inactive)
same,IC50,Prothrombin,27.5 µM (active)
Cc1ccc(C(=O)ON=C2CCN(S(=O)(=O)c3ccccc3)CC2)cc1,AC50,Cytochrome P450 2C19,5.01 µM (inconclusive)
same,AC50,Cytochrome P450 1A2,28.2 µM (inconclusive)
same,AC50,Cytochrome P450 3A4,inconclusive
Cc1oc(-c2ccc(Cl)cc2)nc1CN1CCC(C(=O)N2CCc3ccccc3C2)CC1,EC50,[7],16.5 µM (active)
same,EC50,[8],14.7 µM (active)
Oc1nc(CSc2nnc(-c3cccnc3)n2C2CCCCC2)nc2ccccc12,IC50,H9c2,22.1 µM (active)
CC(C)(C)c1ccc(C(=O)NC(Cc2ccccc2)C(=O)O)cc1 (stereo not given),AC50,Cytochrome P450 2C19,22.4 µM (inconclusive)
same,AC50,Cytochrome P450 2C9,25.1 µM (inconclusive)
same,AC50,Cytochrome P450 3A4,inconclusive
C[C@H](CO)N1C[C@H](C)[C@@H](CN(C)C(=O)NC2CCCCC2)Oc2c(NC(=O)Nc3ccc4c(c3)OCO4)cccc2C1=O,IC50,Fatty acid synthase [4],1.66 µM (active)
same,IC50,Fatty acid synthase [5],4.32 µM (active)
CCOc1ccc(Cl)cc1CNCCNCC(C)O.Cl (stereo not given),AC50,Cytochrome P450 3A4,inconclusive
C=CCCC(=O)N1C[C@H]2CON(C)[C@H]2C[C@H]1c1ccc(N2CCCCC2)cc1,IC50,[13],52.2 µM (active)
same,IC50,[15],> 100 µM (inactive)
same,IC50,Prothrombin,57.2 µM (active)
O=CNc1cc(-c2ccc(C(=O)NC3CC3)cc2)cn2c(-c3ccc(F)c(Cl)c3)cnc12,IC50,H9c2,> 79 µM (inactive)
COc1cc(CN2c3ccccc3C(=O)CS2(=O)=O)cc(OC)c1,IC50,[13],> 100 µM (inactive)
same,IC50,[15],> 100 µM (inactive)
same,IC50,Prothrombin,> 100 µM (inactive)
O=C(Nc1cccc(F)c1)N1CCCCN2[C@@H](CO)[C@@H](c3ccc(-c4ccncc4)cc3)[C@@H]2C1,AC50,Paired box protein Pax-8,32.2 µM (active)
same,AC50,[16],> 70 µM (inactive)
CCCC#Cc1ccc([C@H]2[C@H]3CN(S(=O)(=O)Cc4ccccc4)CCCCN3[C@H]2CO)cc1,AC50,Paired box protein Pax-8,10.9 µM (active)
same,AC50,[16],60.2 µM (active)
CN1c2ccc(-c3ccccc3)cc2[C@@H]2[C@@H](CCN2C(=O)NC2CCCCC2)[C@@H]1CO,AC50,Paired box protein Pax-8,11.1 µM (active)
same,AC50,[16],49.6 µM (active)
O=S1(=O)CC/C(=N/Nc2ccc(C(F)(F)F)cn2)c2cc(F)ccc21,IC50,[6],50 µM (inactive)
COc1ccc(NC(=O)Cn2c(-c3ccc(OC)cc3)cn(-c3ccc(C)cc3)c2=O)cc1,IC50,[13],35.2 µM (active)
same,IC50,[15],> 100 µM (inactive)
same,IC50,Prothrombin,48.5 µM (active)
O=C(O)CC(O)C(=O)O (stereo not given) [MALIC ACID],AC50,Cytochrome P450 3A4,inconclusive
